According to patent publication EP0306300B1, “Pyrrolo(1,2-a)imidazole and imidazo(1,2-a)pyridine derivatives and their use as 5-lipoxygenase pathway inhibitors” (SMITHKLINE BEECHAM CORPORATION, priority 1987, dated 1989):
Where two headings read alike, the source gives them in different places.

Columns and labels:
5-Lipoxygenase = target: T1, 5-Lipoxygenase (Rattus norvegicus, UniProt P12527); test: Assay of 5-lipoxygenase activity in RBL-1 high speed supernatant; assay type: biochemical; settings: read-out: 5-LO IC50
T1 construct: the supernatant was centrifuged at 100,000 x g for 60 min; host or cells: RBL-1 cells (soluble cell extract, high-speed supernatant)
T1 sequence (P12527 1-673): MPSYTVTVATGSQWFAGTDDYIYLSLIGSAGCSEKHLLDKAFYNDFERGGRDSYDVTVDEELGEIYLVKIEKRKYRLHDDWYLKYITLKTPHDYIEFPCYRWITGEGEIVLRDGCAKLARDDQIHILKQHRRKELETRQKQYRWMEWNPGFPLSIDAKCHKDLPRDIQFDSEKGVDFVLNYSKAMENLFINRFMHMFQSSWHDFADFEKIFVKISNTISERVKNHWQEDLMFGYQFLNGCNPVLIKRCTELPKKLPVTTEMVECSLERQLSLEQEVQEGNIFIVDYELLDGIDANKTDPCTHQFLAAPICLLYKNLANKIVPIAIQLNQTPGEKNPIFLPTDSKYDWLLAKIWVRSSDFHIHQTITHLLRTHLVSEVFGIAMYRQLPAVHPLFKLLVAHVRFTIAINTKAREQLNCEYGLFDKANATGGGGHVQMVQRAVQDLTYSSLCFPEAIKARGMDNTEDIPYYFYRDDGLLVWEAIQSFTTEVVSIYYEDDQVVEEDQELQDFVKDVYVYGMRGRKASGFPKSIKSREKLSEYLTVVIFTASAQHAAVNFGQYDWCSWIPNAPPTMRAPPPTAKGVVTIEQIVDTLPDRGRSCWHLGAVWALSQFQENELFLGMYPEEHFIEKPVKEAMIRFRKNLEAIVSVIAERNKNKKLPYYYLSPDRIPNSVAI
Procedure: For in vitro experiments, compounds were dissolved at appropriate concentrations in ethanol (final concentration 1.0%) and then diluted to final concentrations using the buffers indicated in the text.
The activities of these enzymes in extracts of RBL-1 cells were assayed using the method of Jakschik and Lee, Nature, 287, 51-52 (1980). RBL-1 cells were obtained from the American Type Culture Collection (#CRL 1378) and were grown at 37°C (5% CO₂ in air) in spinner culture in MEM supplemented with 10% heat inactivated fetal calf serum. Harvested cells were washed with 50 mM sodium phosphate buffer, pH 7.0, containing 1 mM EDTA and 0.1% gelatin, resuspended in fresh buffer (5 x 10⁷ cells/ml) and disrupted by nitrogen cavitation using the Parr bomb at 750 psi for 10 min. The broken cell extract was then centrifuged at 10,000 x g for 20 minutes (min) and the supernatant was centrifuged at 100,000 x g for 60 min. Aliquots (0.25 mls) of the supernatant were preincubated with or without drugs for 10 min, after which 10 ul CaCl₂ (2 mM) was added and the reaction was initiated with 2.5 »l of 2.5 mM arachidonic acid-1-¹⁴C (final concentration was 25 »M; specific activity 20,000 dpm/nmole). After incubation for 5 minutes at 37°C, the reaction was terminated by addition of 2 volumes (0.5 ml) ice cold acetone and the sample was allowed to deproteinize on ice for 10 minutes prior to centrifugation at 1,000 x g for 10 minutes. The deproteinized supernatant was adjusted to pH 3.5 with 2N formic acid and extracted with 2 volumes of ice cold ethyl acetate. The extracted samples were dried under argon, redissolved in ethyl acetate and applied to Whatman LK5D thin layer chromatography (TLC) plates which were developed using the A-9 solvent system [organic phase of ethyl acetate: […]:acetic acid: water (110:50:20:10)] described by Hamberg and Samuelsson, J. Biol. Chem., 241, 257-263 (1966). Arachidonic acid, 5-HETE, LTB₄ and PGD₂ were quantified with a Berthold LB 2832 autoscanner.
Under these conditions, only the 5-lipoxygenase pathway metabolites were detectable. The 5-HETE and di-HETEs were formed at a linear rate, and […] amounts of the arachidonic acid-1-¹⁴C substrate were utilized.

cynomolgus monkeys = test: CNS activity / oral toxicity in cynomolgus monkeys; settings: cynomolgus monkey, in vivo
Procedure: Additional monkeys tolerated repeated doses of 45 mg/kg or 30 mg/kg and one animal tolerated an escalating dose schedule of 30-90-120 mg/kg.
The two monkeys administered 400 mg/kg were repeatedly administered this dose for 7 consecutive days; each animal experienced emesis within 1 to 5 hours of dosing after the 1st, 3rd and 4th doses, whereas only the female experienced emesis after the 5th, 6th and 7th doses. A complete necropsy, serum clinical chemistry, hematology and histological examination was completed on both monkeys.

[1] = Log D determination by high pressure liquid chromatography; assay type: physicochemical; settings: hplc ods, mobile phase MeOH:H2O, pH 7.4, read-out: (Log D) (Lipophilicity)
Procedure: The procedure used to determine the log D's listed on Table VI was as follows. A 20 »l sample was injected into a Shandon Hypersil ODS, 5» (100 mm x 4.6 mm ID) column and was eluted using a mobile phase of […] MeOH:H₂O (The aqueous portion was .01 M in KH₂PO₄ and adjusted to pH 7.4 with KOH after mixing the MeOH), at a flow rate of 2 ml per minute. Eluting peaks were detected by UV absorbance at […]. All samples were made up at 0.1 mg/ml. (Retentions were identical at 0.01 mg/ml.)
The data was analyzed by determining the regression line corresponding to the log k′ vs. literature log P of the reference standards.
The reference standards and their literature log P's included NaNO₂, 0.0; acetanalide, 1.16; acetophenone, 1.66; anisole, 2.08; chlorobenzene, 2.84; benzophenone, 3.18; anthracene, 4.45; and pentachlorobenzene, 5.12.

[2] = system: arachidonic acid-induced edema in mice; test: Arachidonic acid-induced mouse ear inflammation (ear swelling); assay type: in vivo, male Balb/c mice; settings: 1 h, 50 mg/kg s.c. or i.p., ear thickness one hour after 2 mg arachidonic acid
[3] = In vivo metabolism (statement only)
[4] = LTB4 production by RBL-1 high speed supernatant

SMILES | IC50 (5-Lipoxygenase; [4]) | Adverse CNS activity (cynomolgus monkeys) | CNS toxicity / adverse CNS effects (comparative statement) (cynomolgus monkeys) | chromatographic logD [1] | inhibition at 50 mg/kg [2] | IC50 (5-Lipoxygenase; total HETE and Di-HETE production by RBL-1 high speed supernatant) | metabolism in vivo [3]
CSc1ccc(-c2nc3n(c2-c2ccncc2)CCC3)cc1 [Compound 1, 2-(4-Methylthiophenyl)-3-(4-pyridyl)-6,7-dihydro-[5H]-pyrrolo[1,2-a]imidazole] | 20 µM | + | less CNS toxicity than prior art compound A | 2.68 | 62% |  | 
C[S+]([O-])c1ccc(-c2nc3n(c2-c2ccncc2)CCC3)cc1 (stereo not drawn) [Compound 2, 2-(4-Methylsulfinylphenyl)-3-(4-pyridyl)-6,7-dihydro-[5H]-pyrrolo[1,2-a]imidazole] | > 100 µM |  |  | 0.85 |  | > 100 µM | metabolized in vivo to compound D
